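Protocol summary: plate cells (96-well), add compound at 5 concentrations, incubate 48 h, interpolate endpoints linearly. GI50 = concentration required for 50% inhibition of growth.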 Active and inactive are the calls of the source. No stated cut-off is given here; in the data, active = GI50 up to about 1.1 µM and inactive = higher.
Tests used:
Test in all cases: inhibition of tumour cell growth, NCI panel, 48 h
[1] = system: 786-0
[2] = system: A498
[3] = system: A549
[4] = system: ACHN
[5] = system: BT-549
[6] = system: CAKI-1
[7] = system: CCRF-CEM
[8] = system: COLO 205
[9] = system: DU-145
[10] = system: EKVX
[11] = system: HCC 2998
[12] = system: HCT-116
[13] = system: HCT-15
[14] = system: HL-60
[15] = system: HT-29
[16] = system: IGROV-1
[17] = system: K562
[18] = system: KM12
[19] = system: LOX IMVI
[20] = system: M14
[21] = system: MCF7
[22] = system: MDA-MB-231
[23] = system: MDA-MB-435
[24] = system: MDA-N
[25] = system: MOLT-4
[26] = system: Malme-3M
[27] = system: NCI-H226
[28] = system: NCI-H23
[29] = system: NCI-H460
[30] = system: NCI-H522
[31] = system: NCI/ADR-RES
[32] = system: OVCAR-3
[33] = system: OVCAR-4
[34] = system: OVCAR-5
[35] = system: OVCAR-8
[36] = system: PC-3
[37] = system: RPMI-8226
[38] = system: RXF 393
[39] = system: SF-268
[40] = system: SF-295
[41] = system: SF-539
[42] = system: SK-MEL-28
[43] = system: SK-MEL-2
[44] = system: SK-MEL-5
[45] = system: SK-OV-3
[46] = system: SN12C
[47] = system: SNB-19
[48] = system: SNB-75
[49] = system: SR
[50] = system: SW-620
[51] = system: T47D
[52] = system: TK-10
[53] = system: U-251
[54] = system: UACC-257
[55] = system: UACC-62
[56] = system: UO-31
[57] = system: HOP-62
[58] = system: HOP-92

Oc1cccc(-c2nc3cc(F)ccc3s2)c1
GI50 [1]: 19.5 µM (inactive)
GI50 [2]: 1.11 µM (active)
GI50 [3]: 23.6 µM (inactive)
GI50 [4]: 23.8 µM (inactive)
GI50 [5]: 16.9 µM (inactive)
GI50 [6]: 15.1 µM (inactive)
GI50 [7]: 22.3 µM (inactive)
GI50 [8]: 15.1 µM (inactive)
GI50 [9]: 18.7 µM (inactive)
GI50 [10]: 3.84 µM (inactive)
GI50 [11]: 9.02 µM (inactive)
GI50 [12]: 21.3 µM (inactive)
GI50 [13]: 11.2 µM
GI50 [14]: 23.2 µM (inactive)
GI50 [15]: 16.6 µM (inactive)
GI50 [16]: 2.34 µM (inactive)
GI50 [17]: 27.5 µM (inactive)
GI50 [18]: 11.9 µM (inactive)
GI50 [19]: 15.6 µM (inactive)
GI50 [20]: 18.1 µM (inactive)
GI50 [21]: 1.6 µM (inactive)
GI50 [22]: 15.9 µM (inactive)
GI50 [23]: 23.9 µM (inactive)
GI50 [24]: 19.4 µM (inactive)
GI50 [25]: 20.5 µM (inactive)
GI50 [26]: 16.2 µM (inactive)
GI50 [27]: 9.46 µM (inactive)
GI50 [28]: 16.6 µM (inactive)
GI50 [29]: 18.6 µM (inactive)
GI50 [30]: 10.6 µM (inactive)
GI50 [31]: 17.4 µM (inactive)
GI50 [32]: 11.5 µM (inactive)
GI50 [33]: 9.42 µM (inactive)
GI50 [34]: 21.4 µM (inactive)
GI50 [35]: 20.6 µM (inactive)
GI50 [36]: 24.2 µM (inactive)
GI50 [37]: 20.3 µM (inactive)
GI50 [38]: 25.9 µM (inactive)
GI50 [39]: 23.9 µM (inactive)
GI50 [40]: 20.6 µM (inactive)
GI50 [41]: 19.4 µM (inactive)
GI50 [42]: 19.2 µM (inactive)
GI50 [43]: 19.8 µM (inactive)
GI50 [44]: 10.7 µM (inactive)
GI50 [45]: 16.7 µM (inactive)
GI50 [46]: 23.4 µM (inactive)
GI50 [47]: 24.4 µM (inactive)
GI50 [48]: 11.1 µM (inactive)
GI50 [49]: 18 µM (inactive)
GI50 [50]: 22 µM (inactive)
GI50 [51]: 0.225 µM (active)
GI50 [52]: 12.4 µM (inactive)
GI50 [53]: 24.5 µM (inactive)
GI50 [54]: 13.9 µM (inactive)
GI50 [55]: 14.5 µM (inactive)
GI50 [56]: 14.5 µM (inactive)

CN1C(=O)c2c(c3c4ccccc4n(C)c3c3c2c2ccccc2n3C)C1=O
GI50 [1]: > 100 µM (inactive)
GI50 [2]: > 100 µM (inactive)
GI50 [3]: > 100 µM (inactive)
GI50 [4]: > 100 µM (inactive)
GI50 [5]: > 100 µM (inactive)
GI50 [6]: > 100 µM (inactive)
GI50 [7]: > 100 µM (inactive)
GI50 [8]: > 100 µM (inactive)
GI50 [9]: > 100 µM (inactive)
GI50 [10]: > 100 µM (inactive)
GI50 [11]: > 100 µM (inactive)
GI50 [12]: > 100 µM (inactive)
GI50 [13]: > 100 µM
GI50 [57]: > 100 µM (inactive)
GI50 [58]: > 100 µM (inactive)
GI50 [15]: > 100 µM (inactive)
GI50 [16]: > 100 µM (inactive)
GI50 [17]: > 100 µM (inactive)
GI50 [18]: > 100 µM (inactive)
GI50 [19]: > 100 µM (inactive)
GI50 [20]: > 100 µM (inactive)
GI50 [21]: > 100 µM (inactive)
GI50 [22]: > 100 µM (inactive)
GI50 [23]: > 100 µM (inactive)
GI50 [24]: > 100 µM (inactive)
GI50 [25]: > 100 µM (inactive)
GI50 [26]: > 100 µM (inactive)
GI50 [27]: > 100 µM (inactive)
GI50 [28]: > 100 µM (inactive)
GI50 [29]: > 100 µM (inactive)
GI50 [30]: > 100 µM (inactive)
GI50 [31]: > 100 µM (inactive)
GI50 [32]: 58.6 µM (inactive)
GI50 [33]: > 100 µM (inactive)
GI50 [34]: > 100 µM (inactive)
GI50 [35]: > 100 µM (inactive)
GI50 [36]: > 100 µM (inactive)
GI50 [37]: > 100 µM (inactive)
GI50 [40]: > 100 µM (inactive)
GI50 [41]: > 100 µM (inactive)
GI50 [42]: > 100 µM (inactive)
GI50 [43]: > 100 µM (inactive)
GI50 [44]: > 100 µM (inactive)
GI50 [45]: > 100 µM (inactive)
GI50 [46]: > 100 µM (inactive)
GI50 [47]: > 100 µM (inactive)
GI50 [48]: > 100 µM (inactive)
GI50 [49]: 67.3 µM (inactive)
GI50 [50]: > 100 µM (inactive)
GI50 [51]: > 100 µM (inactive)
GI50 [52]: > 100 µM (inactive)
GI50 [53]: > 100 µM (inactive)
GI50 [54]: > 100 µM (inactive)
GI50 [55]: > 100 µM (inactive)
GI50 [56]: > 100 µM (inactive)

— ChEMBL document CHEMBL1201862, “PubChem BioAssay data set” (2004)
